We go through six compounds from ChEMBL document CHEMBL2429769, “Synthesis and bioconversions of formestane” (J Nat Prod, 2013).

Molecules are shown by their SMILES. pIC50: −log10 of the molar value.

One assay relates to MCF7. Kind of assay: Cytotoxicity against human MCF7 cells after 72 hrs by SRB assay. The class given is functional, cell-based. Conditions: MCF7, 72 h. Background: Sulforhodamine B stains cellular protein and so reports cell mass.
A further assay has as its target T1, Aromatase (Homo sapiens, UniProt P11511).
T1 sequence (P11511 whole entry): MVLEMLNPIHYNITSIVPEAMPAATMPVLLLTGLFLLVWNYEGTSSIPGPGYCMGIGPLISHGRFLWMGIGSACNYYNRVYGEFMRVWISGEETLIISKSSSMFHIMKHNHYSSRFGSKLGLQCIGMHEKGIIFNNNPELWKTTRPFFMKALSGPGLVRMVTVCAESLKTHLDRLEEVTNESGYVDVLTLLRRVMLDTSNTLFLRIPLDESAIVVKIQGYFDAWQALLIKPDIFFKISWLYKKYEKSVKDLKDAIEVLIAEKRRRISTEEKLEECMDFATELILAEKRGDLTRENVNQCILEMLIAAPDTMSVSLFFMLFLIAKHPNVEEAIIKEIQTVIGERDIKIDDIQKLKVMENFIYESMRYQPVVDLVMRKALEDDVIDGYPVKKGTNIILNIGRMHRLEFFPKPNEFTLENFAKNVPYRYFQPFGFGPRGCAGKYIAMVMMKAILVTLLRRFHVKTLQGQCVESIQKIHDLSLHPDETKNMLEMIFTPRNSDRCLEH

Description for Aromatase: Inhibition of aromatase (unknown origin) using dibenzylfluorescein as substrate after 30 mins by fluorescence assay

The term pIC50 denotes the negative decadic logarithm of the IC50, by convention in mol/L. Low values mean a high IC50, high ones a low IC50. As to `C[C@]12CCC(=O)C(O)=C1CC[C@@H]1[C@@H]2CC[C@]2(C)C(=O)CC[C@@H]12` [FORMESTANE], the pIC50 in the assay with MCF7 was 4.70; on Aromatase it was 4.23.
As to `C[C@]12CC[C@H]3[C@@H](CC[C@@]4(O)[C@@H](O)C(=O)CC[C@]34C)[C@@H]1CCC2=O`, the results for the pIC50 in the assay on MCF7 and against Aromatase were 4.82 and 4.54, respectively.
Consider `C[C@]12CC[C@H]3[C@@H](CCC4=C(O)C(=O)CC[C@@]43C)[C@@H]1CC[C@@H]2O`, for which the negative-log IC50 (pIC50) is 4.78 in the assay with MCF7 and 4.33 at Aromatase.
On to `C[C@]12C[C@@H](O)[C@H]3[C@@H](CCC4=C(O)C(=O)CC[C@@]43C)[C@@H]1CC[C@@H]2O`, for which the negative logarithm of the IC50 (pIC50) with MCF7 is 4.90; against Aromatase, 4.96.
For `C[C@]12CC[C@@H](O)C(=O)[C@H]1CC[C@@H]1[C@@H]2CC[C@]2(C)[C@@H](O)CC[C@@H]12` [3ALPHA,17BETA-DIHYDROXY-5BETA-ANDROSTAN-4-ONE], the pIC50 in the assay with MCF7 is 4.79; against Aromatase, 5.41.
On to `CC[C@]1(O)C[C@@H]2CN(CCc3c([nH]c4ccccc34)[C@@](C(=O)OC)(c3cc4c(cc3OC)N(C)[C@H]3[C@@](O)(C(=O)OC)[C@H](OC(C)=O)[C@]5(CC)C=CCN6CC[C@]43[C@@H]65)C2)C1` [VINBLASTINE], for which, in the assay with MCF7, the negative logarithm of the IC50 (pIC50) is 7.96.
